Experimental data published in publication PMC9856672, “SGC-CAMKK2-1: A Chemical Probe for CAMKK2” (Cells, 2023).

Tests used:
[1] = molecular target: T1, TYK2(JH1domain-catalytic) (Homo sapiens, UniProt P29597); experiment: KINOMEscan at 1 μM, TYK2(JH1domain-catalytic); assay type: binding; conditions: 1000 nM, read-out: Percent Control
T1 construct: TYK2(JH1domain-catalytic); purchased Eurofins DiscoverX KINOMEscan
Excerpt: (§1) Supplement cells-12-00287-s001.zip/File S2. KinomeScan data for the CAMKK2 probe and negative control.xlsx, sheet "SGC-CAMKK2-1N" | column: Percent Control

CSNK1A1 = molecular target: T2, CSNK1A1 (Homo sapiens, UniProt P48729); experiment: KINOMEscan at 1 μM, CSNK1A1; assay type: binding; conditions: 1000 nM, read-out: Percent Control
T2 construct: purchased Eurofins DiscoverX KINOMEscan
Excerpt: as §1

PFCDPK1(P.falciparum) = molecular target: T3, PFCDPK1(P.falciparum) (Plasmodium falciparum, UniProt P62344); experiment: KINOMEscan binding assay at 1 μM, PFCDPK1(P.falciparum); conditions: Compound Concentration 1000 nM; read-out: Percent Control
T3 construct: purchased Eurofins DiscoverX KINOMEscan
Excerpt: as §1

NLK = molecular target: T4, NLK (Homo sapiens, UniProt Q9UBE8); experiment: KINOMEscan at 1 μM, NLK; assay type: binding; conditions: 1000 nM, read-out: Percent Control
T4 construct: purchased Eurofins DiscoverX KINOMEscan
Excerpt: as §1

PIK3C2B = molecular target: T5, PIK3C2B (Homo sapiens, UniProt O00750); experiment: KINOMEscan at 1 μM, PIK3C2B; assay type: binding; conditions: 1000 nM, read-out: Percent Control
T5 construct: purchased Eurofins DiscoverX KINOMEscan
Excerpt: as §1

STK35 = molecular target: T6, STK35 (Homo sapiens, UniProt Q8TDR2); experiment: KINOMEscan at 1 μM, STK35; assay type: binding; conditions: 1000 nM, read-out: Percent Control
T6 construct: purchased Eurofins DiscoverX KINOMEscan
Excerpt: as §1

SRPK3 = molecular target: T7, SRPK3 (Homo sapiens, UniProt Q9UPE1); experiment: KINOMEscan binding assay at 1 μM, SRPK3; conditions: Compound Concentration 1000 nM; read-out: Percent Control
T7 construct: purchased Eurofins DiscoverX KINOMEscan
Excerpt: as §1

RIOK3 [2] = molecular target: T8, RIOK3 (Homo sapiens, UniProt O14730); experiment: KINOMEscan at 1 μM, RIOK3; assay type: binding; conditions: 1000 nM, read-out: Percent Control
T8 construct: purchased Eurofins DiscoverX KINOMEscan
Excerpt: as §1

ICK = molecular target: T9, ICK (Homo sapiens, UniProt Q9UPZ9); experiment: KINOMEscan at 1 μM, ICK; assay type: binding; conditions: 1000 nM, read-out: Percent Control
T9 construct: purchased Eurofins DiscoverX KINOMEscan
Excerpt: as §1

SRPK1 = molecular target: T10, SRPK1 (Homo sapiens, UniProt Q96SB4); experiment: KINOMEscan at 1 μM, SRPK1; assay type: binding; conditions: 1000 nM, read-out: Percent Control
T10 construct: purchased Eurofins DiscoverX KINOMEscan
Excerpt: as §1

DCAMKL2 = molecular target: T11, DCAMKL2 (Homo sapiens, UniProt Q8N568); experiment: KINOMEscan at 1 μM, DCAMKL2; assay type: binding; conditions: 1000 nM, read-out: Percent Control
T11 construct: purchased Eurofins DiscoverX KINOMEscan
Excerpt: as §1

JNK1 = molecular target: T12, JNK1 (Homo sapiens, UniProt P45983); experiment: KINOMEscan at 1 μM, JNK1; assay type: binding; conditions: 1000 nM, read-out: Percent Control
T12 construct: purchased Eurofins DiscoverX KINOMEscan
Excerpt: as §1

PYK2 = molecular target: T13, PYK2 (Homo sapiens, UniProt Q14289); experiment: KINOMEscan at 1 μM, PYK2; assay type: binding; conditions: 1000 nM, read-out: Percent Control
T13 construct: purchased Eurofins DiscoverX KINOMEscan
Excerpt: as §1

ERK5 = molecular target: T14, ERK5 (Homo sapiens, UniProt Q13164); experiment: KINOMEscan at 1 μM, ERK5; assay type: binding; conditions: 1000 nM, read-out: Percent Control
T14 construct: purchased Eurofins DiscoverX KINOMEscan
Excerpt: as §1

KIT = molecular target: T15, KIT (Homo sapiens, UniProt P10721); experiment: KINOMEscan 1 μM, KIT; assay type: binding; conditions: 1000 nM; Entrez KIT; read-out: Percent Control
T15 construct: purchased Eurofins DiscoverX KINOMEscan
Excerpt: (§2) Supplement cells-12-00287-s001.zip/File S2. KinomeScan data for the CAMKK2 probe and negative control.xlsx, sheet "SGC-CAMKK2-1" | column: Percent Control

SRC = molecular target: T16, SRC (Homo sapiens, UniProt P12931); experiment: KINOMEscan 1 μM, SRC; assay type: binding; conditions: 1000 nM; Entrez SRC; read-out: Percent Control
T16 construct: purchased Eurofins DiscoverX KINOMEscan
Excerpt: as §2

PIK3C2G = molecular target: T17, PIK3C2G (Homo sapiens, UniProt O75747); experiment: KINOMEscan 1 μM, PIK3C2G; assay type: binding; conditions: 1000 nM; Entrez PIK3C2G; read-out: Percent Control
T17 construct: purchased Eurofins DiscoverX KINOMEscan
Excerpt: as §2

PRKCI = molecular target: T18, PRKCI (Homo sapiens, UniProt P41743); experiment: DiscoverX KINOMEscan binding assay at 1 μM, PRKCI; conditions: Compound Concentration 1000 nM, read-out: Percent Control
T18 construct: purchased Eurofins DiscoverX KINOMEscan
Excerpt: as §2

MYO3A = molecular target: T19, MYO3A (Homo sapiens, UniProt Q8NEV4); experiment: KINOMEscan 1 μM, MYO3A; assay type: binding; conditions: 1000 nM; Entrez MYO3A; read-out: Percent Control
T19 construct: purchased Eurofins DiscoverX KINOMEscan
Excerpt: as §2

YSK4 = molecular target: T20, YSK4 (Homo sapiens, UniProt Q56UN5); experiment: KINOMEscan 1 μM, YSK4; assay type: binding; conditions: 1000 nM; Entrez MAP3K19; read-out: Percent Control
T20 construct: purchased Eurofins DiscoverX KINOMEscan
Excerpt: as §2

CDK8 = molecular target: T21, CDK8 (Homo sapiens, UniProt P49336); experiment: KINOMEscan 1 μM, CDK8; assay type: binding; conditions: 1000 nM; Entrez CDK8; read-out: Percent Control
T21 construct: purchased Eurofins DiscoverX KINOMEscan
Excerpt: as §2

EPHA1 = molecular target: T22, EPHA1 (Homo sapiens, UniProt P21709); experiment: KINOMEscan 1 μM, EPHA1; assay type: binding; conditions: 1000 nM; Entrez EPHA1; read-out: Percent Control
T22 construct: purchased Eurofins DiscoverX KINOMEscan
Excerpt: as §2

[3] = molecular target: T23, RSK3(Kin.Dom.2-C-terminal) (Homo sapiens, UniProt Q15349); experiment: DiscoverX KINOMEscan binding assay at 1 μM, RSK3(Kin.Dom.2-C-terminal); conditions: RSK3(Kin.Dom.2-C-terminal) (RPS6KA2); Compound Concentration 1000 nM; read-out: Percent Control
T23 construct: RSK3(Kin.Dom.2-C-terminal); purchased Eurofins DiscoverX KINOMEscan
Excerpt: as §2

MAPKAPK2 = molecular target: T24, MAPKAPK2 (Homo sapiens, UniProt P49137); experiment: KINOMEscan 1 μM, MAPKAPK2; assay type: binding; conditions: 1000 nM; Entrez MAPKAPK2; read-out: Percent Control
T24 construct: purchased Eurofins DiscoverX KINOMEscan
Excerpt: as §2

RIOK3 [4] = molecular target: T8, RIOK3; experiment: KINOMEscan 1 μM, RIOK3; assay type: binding; conditions: 1000 nM; Entrez RIOK3; read-out: Percent Control
Excerpt: as §2

GRK7 = molecular target: T25, GRK7 (Homo sapiens, UniProt Q8WTQ7); experiment: KINOMEscan 1 μM, GRK7; assay type: binding; conditions: 1000 nM; Entrez GRK7; read-out: Percent Control
T25 construct: purchased Eurofins DiscoverX KINOMEscan
Excerpt: as §2

NDR2 = molecular target: T26, NDR2 (Homo sapiens, UniProt Q9Y2H1); experiment: KINOMEscan 1 μM, NDR2; assay type: binding; conditions: 1000 nM; Entrez STK38L; read-out: Percent Control
T26 construct: purchased Eurofins DiscoverX KINOMEscan
Excerpt: as §2

RIPK1 = molecular target: T27, RIPK1 (Homo sapiens, UniProt Q13546); experiment: KINOMEscan 1 μM, RIPK1; assay type: binding; conditions: 1000 nM; Entrez RIPK1; read-out: Percent Control
T27 construct: purchased Eurofins DiscoverX KINOMEscan
Excerpt: as §2

CAMK2B = molecular target: T28, CAMK2B (Homo sapiens, UniProt Q13554); experiment: KINOMEscan 1 μM, CAMK2B; assay type: binding; conditions: 1000 nM; Entrez CAMK2B; read-out: Percent Control
T28 construct: purchased Eurofins DiscoverX KINOMEscan
Excerpt: as §2

ERK1 = molecular target: T29, ERK1 (Homo sapiens, UniProt P27361); experiment: KINOMEscan 1 μM, ERK1; assay type: binding; conditions: 1000 nM; Entrez MAPK3; read-out: Percent Control
T29 construct: purchased Eurofins DiscoverX KINOMEscan
Excerpt: as §2

TNK1 = molecular target: T30, TNK1 (Homo sapiens, UniProt Q13470); experiment: DiscoverX KINOMEscan binding assay at 1 μM, TNK1; conditions: Compound Concentration 1000 nM, read-out: Percent Control
T30 construct: purchased Eurofins DiscoverX KINOMEscan
Excerpt: as §2

EGFR(L858R) = molecular target: T31, EGFR(L858R) (Homo sapiens, UniProt P00533, L858R); experiment: KINOMEscan 1 μM, EGFR(L858R); assay type: binding; conditions: 1000 nM; Entrez EGFR; read-out: Percent Control
T31 construct: purchased Eurofins DiscoverX KINOMEscan
Excerpt: as §2

T8 sequence (O14730 whole entry): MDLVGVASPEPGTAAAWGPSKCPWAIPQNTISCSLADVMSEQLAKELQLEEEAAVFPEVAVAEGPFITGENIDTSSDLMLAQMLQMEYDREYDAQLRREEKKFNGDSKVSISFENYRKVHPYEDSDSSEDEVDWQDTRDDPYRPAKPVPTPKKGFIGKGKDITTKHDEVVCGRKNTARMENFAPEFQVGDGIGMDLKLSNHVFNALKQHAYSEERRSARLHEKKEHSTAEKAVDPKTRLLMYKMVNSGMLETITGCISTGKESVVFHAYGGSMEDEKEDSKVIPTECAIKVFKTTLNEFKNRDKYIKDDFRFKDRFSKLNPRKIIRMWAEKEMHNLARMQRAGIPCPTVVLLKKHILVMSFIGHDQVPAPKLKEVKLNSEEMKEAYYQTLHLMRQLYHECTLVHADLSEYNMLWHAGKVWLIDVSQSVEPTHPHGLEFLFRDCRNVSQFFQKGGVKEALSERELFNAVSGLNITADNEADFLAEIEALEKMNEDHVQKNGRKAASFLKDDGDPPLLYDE
T9 sequence (Q9UPZ9 whole entry): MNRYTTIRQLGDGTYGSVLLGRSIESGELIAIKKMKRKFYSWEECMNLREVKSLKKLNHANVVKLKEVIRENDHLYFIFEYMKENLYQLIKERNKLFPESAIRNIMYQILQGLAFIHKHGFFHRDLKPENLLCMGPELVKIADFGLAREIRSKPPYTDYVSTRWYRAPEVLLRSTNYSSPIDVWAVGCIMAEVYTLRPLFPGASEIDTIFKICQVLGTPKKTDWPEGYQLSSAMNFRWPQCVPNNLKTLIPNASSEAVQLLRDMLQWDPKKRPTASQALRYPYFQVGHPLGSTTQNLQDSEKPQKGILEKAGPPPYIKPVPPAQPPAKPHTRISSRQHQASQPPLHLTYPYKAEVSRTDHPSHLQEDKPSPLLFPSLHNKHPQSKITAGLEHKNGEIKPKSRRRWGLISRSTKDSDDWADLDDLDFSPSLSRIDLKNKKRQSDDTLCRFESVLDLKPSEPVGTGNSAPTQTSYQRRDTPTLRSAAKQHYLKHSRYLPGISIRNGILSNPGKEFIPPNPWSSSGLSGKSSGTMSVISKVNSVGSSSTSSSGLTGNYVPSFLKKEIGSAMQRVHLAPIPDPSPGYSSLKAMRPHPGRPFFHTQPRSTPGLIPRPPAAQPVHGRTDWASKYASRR
T14 sequence (Q13164 whole entry): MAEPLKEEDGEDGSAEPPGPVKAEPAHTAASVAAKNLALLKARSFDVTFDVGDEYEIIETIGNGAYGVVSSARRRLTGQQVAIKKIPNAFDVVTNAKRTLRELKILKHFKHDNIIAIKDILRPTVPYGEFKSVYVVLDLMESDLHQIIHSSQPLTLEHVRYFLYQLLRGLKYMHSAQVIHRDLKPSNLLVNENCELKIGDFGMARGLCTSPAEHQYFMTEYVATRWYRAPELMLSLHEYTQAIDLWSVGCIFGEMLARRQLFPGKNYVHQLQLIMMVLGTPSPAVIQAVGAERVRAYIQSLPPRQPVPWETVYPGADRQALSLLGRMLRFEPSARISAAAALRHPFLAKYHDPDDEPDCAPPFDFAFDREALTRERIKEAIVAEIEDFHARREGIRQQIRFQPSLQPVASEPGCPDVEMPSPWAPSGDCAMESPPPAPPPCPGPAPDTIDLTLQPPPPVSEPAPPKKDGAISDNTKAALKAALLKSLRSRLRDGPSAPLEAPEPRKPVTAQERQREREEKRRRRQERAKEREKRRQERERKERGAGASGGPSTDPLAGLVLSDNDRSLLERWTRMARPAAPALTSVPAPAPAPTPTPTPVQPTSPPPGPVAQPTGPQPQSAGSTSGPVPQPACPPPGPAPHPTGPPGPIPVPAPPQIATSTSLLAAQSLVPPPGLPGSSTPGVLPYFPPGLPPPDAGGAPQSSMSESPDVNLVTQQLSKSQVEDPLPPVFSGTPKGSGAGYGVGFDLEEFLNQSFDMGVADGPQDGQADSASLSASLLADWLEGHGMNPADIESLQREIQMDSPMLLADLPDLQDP
T17 sequence (O75747 whole entry): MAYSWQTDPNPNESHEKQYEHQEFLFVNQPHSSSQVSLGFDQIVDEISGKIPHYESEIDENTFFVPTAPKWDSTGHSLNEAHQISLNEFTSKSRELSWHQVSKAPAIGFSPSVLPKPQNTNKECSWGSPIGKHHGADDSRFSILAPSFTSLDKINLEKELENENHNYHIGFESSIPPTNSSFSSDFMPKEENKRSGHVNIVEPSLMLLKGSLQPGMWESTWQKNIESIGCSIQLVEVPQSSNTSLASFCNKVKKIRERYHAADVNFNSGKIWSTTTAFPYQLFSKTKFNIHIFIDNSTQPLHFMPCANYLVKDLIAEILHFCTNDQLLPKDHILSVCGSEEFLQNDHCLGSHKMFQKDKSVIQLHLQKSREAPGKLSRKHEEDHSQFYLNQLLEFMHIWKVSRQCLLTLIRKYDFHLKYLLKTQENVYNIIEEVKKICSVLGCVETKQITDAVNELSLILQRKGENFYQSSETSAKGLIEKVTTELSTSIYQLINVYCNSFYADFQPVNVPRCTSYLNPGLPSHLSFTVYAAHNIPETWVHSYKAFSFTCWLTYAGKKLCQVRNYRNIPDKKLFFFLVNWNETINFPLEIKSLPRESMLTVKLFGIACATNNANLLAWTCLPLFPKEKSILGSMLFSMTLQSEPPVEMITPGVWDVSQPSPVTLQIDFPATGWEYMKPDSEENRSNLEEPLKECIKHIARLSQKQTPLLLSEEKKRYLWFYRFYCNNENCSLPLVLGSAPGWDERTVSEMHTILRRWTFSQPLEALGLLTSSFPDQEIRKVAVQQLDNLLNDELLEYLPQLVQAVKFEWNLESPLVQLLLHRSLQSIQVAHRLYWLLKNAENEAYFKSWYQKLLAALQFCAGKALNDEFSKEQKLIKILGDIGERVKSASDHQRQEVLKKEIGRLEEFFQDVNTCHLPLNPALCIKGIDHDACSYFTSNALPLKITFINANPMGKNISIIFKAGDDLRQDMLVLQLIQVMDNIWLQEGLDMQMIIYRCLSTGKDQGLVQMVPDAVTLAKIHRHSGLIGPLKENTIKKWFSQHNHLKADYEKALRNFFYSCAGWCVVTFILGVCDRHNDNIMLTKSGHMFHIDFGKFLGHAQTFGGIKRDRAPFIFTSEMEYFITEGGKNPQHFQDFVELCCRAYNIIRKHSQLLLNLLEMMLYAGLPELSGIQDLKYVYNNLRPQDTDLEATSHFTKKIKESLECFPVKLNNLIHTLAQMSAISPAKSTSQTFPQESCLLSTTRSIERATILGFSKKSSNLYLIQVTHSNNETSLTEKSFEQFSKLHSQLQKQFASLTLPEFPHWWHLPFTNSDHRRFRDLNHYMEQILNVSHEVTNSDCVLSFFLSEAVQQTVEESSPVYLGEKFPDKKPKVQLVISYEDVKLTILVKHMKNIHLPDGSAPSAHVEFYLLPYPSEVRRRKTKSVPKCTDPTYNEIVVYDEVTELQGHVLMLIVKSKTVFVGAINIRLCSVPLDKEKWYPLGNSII
T21 sequence (P49336 whole entry): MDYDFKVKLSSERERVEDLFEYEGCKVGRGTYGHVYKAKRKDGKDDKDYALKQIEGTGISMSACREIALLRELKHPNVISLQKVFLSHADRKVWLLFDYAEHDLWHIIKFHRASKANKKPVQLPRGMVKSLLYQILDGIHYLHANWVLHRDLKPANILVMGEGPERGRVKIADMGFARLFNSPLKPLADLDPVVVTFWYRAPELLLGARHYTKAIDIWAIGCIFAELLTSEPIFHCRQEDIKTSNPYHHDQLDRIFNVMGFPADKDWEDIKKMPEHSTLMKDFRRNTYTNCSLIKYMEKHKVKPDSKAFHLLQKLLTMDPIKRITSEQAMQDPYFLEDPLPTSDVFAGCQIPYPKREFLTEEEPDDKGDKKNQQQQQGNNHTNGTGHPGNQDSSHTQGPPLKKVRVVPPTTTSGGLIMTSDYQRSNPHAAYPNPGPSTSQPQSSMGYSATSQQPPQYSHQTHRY
T1 sequence (P29597 871-1187 limits assumed): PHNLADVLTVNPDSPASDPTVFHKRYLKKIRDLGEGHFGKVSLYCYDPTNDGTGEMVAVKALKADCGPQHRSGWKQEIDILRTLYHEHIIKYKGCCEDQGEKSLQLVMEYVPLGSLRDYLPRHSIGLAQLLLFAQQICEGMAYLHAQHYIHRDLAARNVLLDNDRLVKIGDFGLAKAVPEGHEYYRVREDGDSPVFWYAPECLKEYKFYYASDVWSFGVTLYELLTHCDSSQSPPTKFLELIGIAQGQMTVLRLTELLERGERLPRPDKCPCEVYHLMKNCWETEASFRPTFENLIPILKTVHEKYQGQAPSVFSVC
T6 sequence (Q8TDR2 whole entry): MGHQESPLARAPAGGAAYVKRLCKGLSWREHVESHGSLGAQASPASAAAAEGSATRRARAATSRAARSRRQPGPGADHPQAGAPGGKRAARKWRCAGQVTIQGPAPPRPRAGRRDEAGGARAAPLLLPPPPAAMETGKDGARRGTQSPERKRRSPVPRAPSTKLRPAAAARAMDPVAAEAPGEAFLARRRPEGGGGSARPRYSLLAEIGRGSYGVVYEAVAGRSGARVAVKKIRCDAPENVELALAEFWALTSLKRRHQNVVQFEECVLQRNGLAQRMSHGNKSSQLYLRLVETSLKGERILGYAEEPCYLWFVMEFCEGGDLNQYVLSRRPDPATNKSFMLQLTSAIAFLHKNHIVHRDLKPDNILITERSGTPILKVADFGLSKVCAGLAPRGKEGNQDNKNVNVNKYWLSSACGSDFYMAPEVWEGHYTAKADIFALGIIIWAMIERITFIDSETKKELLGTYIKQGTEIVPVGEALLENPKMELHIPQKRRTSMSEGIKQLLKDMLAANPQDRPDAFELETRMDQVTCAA

O=C(O)c1ccc(-c2coc3ncc(-c4ccccc4)cc23)cc1Cl [SGC-CAMKK2-1N (UNC-YL-83)]
remaining binding at 1 µM [1]: 89%
remaining binding at 1 µM (CSNK1A1): 44%
remaining binding at 1 µM (PFCDPK1(P.falciparum)): 100%
remaining binding at 1 µM (NLK): 84%
remaining binding at 1 µM (PIK3C2B): 91%
remaining binding at 1 µM (STK35): 88%
remaining binding at 1 µM (SRPK3): 100%
remaining binding at 1 µM (RIOK3 [2]): 76%
remaining binding at 1 µM (ICK): 71%
remaining binding at 1 µM (SRPK1): 85%
remaining binding at 1 µM (DCAMKL2): 100%
remaining binding at 1 µM (JNK1): 81%
remaining binding at 1 µM (PYK2): 96%
remaining binding at 1 µM (ERK5): 81%

Cc1cccc(-c2cnc3occ(-c4ccc(C(=O)O)c(C5CCCC5)c4)c3c2)c1 [SGC-CAMKK2-1 (YL-36)]
remaining binding at 1 µM (KIT): 100%
remaining binding at 1 µM (SRC): 96%
remaining binding at 1 µM (PIK3C2G): 81%
remaining binding at 1 µM (PRKCI): 100%
remaining binding at 1 µM (MYO3A): 100%
remaining binding at 1 µM (YSK4): 85%
remaining binding at 1 µM (CDK8): 72%
remaining binding at 1 µM (EPHA1): 100%
remaining binding at 1 µM [3]: 100%
remaining binding at 1 µM (MAPKAPK2): 100%
remaining binding at 1 µM (RIOK3 [4]): 75%
remaining binding at 1 µM (GRK7): 94%
remaining binding at 1 µM (NDR2): 100%
remaining binding at 1 µM (RIPK1): 93%
remaining binding at 1 µM (CAMK2B): 86%
remaining binding at 1 µM (ERK1): 100%
remaining binding at 1 µM (TNK1): 100%
remaining binding at 1 µM (EGFR(L858R)): 77%
